Source: ChEMBL document CHEMBL4130577, “Platanic acid: A new scaffold for the synthesis of cytotoxic agents” (Eur J Med Chem, 2018)
Activity calls are given as the source filed them. No cut-off for these calls is given here.

What was measured:
A2780 [1] = test: Cytotoxicity against human A2780 cells assessed as morphological changes at 5 uM after 24 hrs by acridine orange/propidium iodide staining based fluorescence microscopic method; type: functional, cell-based
A549 = test: Cytotoxicity against human A549 cells after 96 hrs by SRB assay; type: functional, cell-based; settings: A549, 96 h
518A2 = test: Cytotoxicity against human 518A2 cells after 96 hrs by SRB assay; type: functional, cell-based; settings: 518A2, 96 h
A2780 [2] = test: Cytotoxicity against human A2780 cells after 96 hrs by SRB assay; type: functional, cell-based; settings: A2780, 96 h
A2780 [3] = test: Induction of apoptosis in human A2780 cells assessed as early apoptotic cells at 5 uM after 24 hrs by Annexin V-FITC/propidium iodide staining based flow cytometry (reference value: 3.5%); type: functional
A2780 [4] = test: Cell cycle arrest in human A2780 cells at 5 uM after 24 hrs by propidium iodide staining based flow cytometry; type: functional
NIH3T3 = test: Cytotoxicity against mouse NIH/3T3 cells after 96 hrs by SRB assay; type: cell-based; settings: NIH3T3, 96 h
A2780 [5] = test: Induction of apoptosis in human A2780 cells assessed as live cells at 5 uM after 24 hrs by Annexin V-FITC/propidium iodide staining based flow cytometry (reference value: 88.7%); type: functional
MCF7 = test: Cytotoxicity against human MCF7 cells after 96 hrs by SRB assay; type: functional, cell-based; settings: MCF7, 96 h
HT-29 = test: cells; settings: Homo sapiens, HT-29, 96 h
Description: Cytotoxicity against human HT-29 cells after 96 hrs by SRB assay

A2780 [6] = test: Induction of apoptosis in human A2780 cells assessed as necrotic cells at 5 uM after 24 hrs by Annexin V-FITC/propidium iodide staining based flow cytometry (reference value: 1.1%); type: functional
A2780 [7] = test: Induction of apoptosis in human A2780 cells assessed as increase in caspase-3 activity at 5 uM after 24 hrs by flow cytometry; type: functional, cell-based
A2780 [8] = test: Induction of apoptosis in human A2780 cells assessed as late apoptotic cells at 5 uM after 24 hrs by Annexin V-FITC/propidium iodide staining based flow cytometry (reference value: 6.6%); type: functional
A2780 [9] = test: Induction of apoptosis in human A2780 cells assessed as necrotic cells at 8 uM after 24 hrs by Annexin V-FITC/propidium iodide staining based flow cytometry (reference value: 1.1%); type: functional
A2780 [10] = test: Cytotoxicity against human A2780 cells assessed as morphological changes at 8 uM after 24 hrs by acridine orange/propidium iodide staining based fluorescence microscopic method; type: functional, cell-based
A2780 [11] = test: Cell cycle arrest in human A2780 cells at 8 uM after 24 hrs by propidium iodide staining based flow cytometry; type: functional
A2780 [12] = test: Induction of apoptosis in human A2780 cells assessed as late apoptotic cells at 8 uM after 24 hrs by Annexin V-FITC/propidium iodide staining based flow cytometry (reference value: 6.6%); type: functional
A2780 [13] = test: Induction of apoptosis in human A2780 cells assessed as increase in caspase-3 activity at 8 uM after 24 hrs by flow cytometry; type: functional, cell-based
A2780 [14] = test: Induction of apoptosis in human A2780 cells assessed as early apoptotic cells at 8 uM after 24 hrs by Annexin V-FITC/propidium iodide staining based flow cytometry (reference value: 3.5%); type: functional
A2780 [15] = test: Induction of apoptosis in human A2780 cells assessed as live cells at 8 uM after 24 hrs by Annexin V-FITC/propidium iodide staining based flow cytometry (reference value: 88.7%); type: functional

EC50 (HT-29) [µM] | Compound | Activity (A2780 [1]) | EC50 (A549) [µM] | EC50 (518A2) [µM] | EC50 (A2780 [2]) [µM] | Activity (A2780 [3]) [%] | Activity (A2780 [4]) | EC50 (NIH3T3) [µM] | Activity (A2780 [5]) [%] | EC50 (MCF7) [µM] | Activity (A2780 [6]) [%] | Activity (A2780 [7]) | Activity (A2780 [8]) [%] | Activity (A2780 [9]) [%] | Activity (A2780 [10]) | Activity (A2780 [11]) | Activity (A2780 [12]) [%] | Activity (A2780 [13]) | Activity (A2780 [14]) [%] | Activity (A2780 [15]) [%]
2.8 | CC(=O)[C@@H]1CC[C@]2(C(=O)NCCN3CCCC3)CC[C@]3(C)[C@H](CC[C@@H]4[C@@]5(C)CC[C@H](O)C(C)(C)[C@@H]5CC[C@]43C)[C@@H]12 | Active | 2.3 | 2.5 | 2.2 | 7.1 | inactive | 2.8 | 41.3 | 2.1 | 4.2 | Active | 47.4 | – | – | – | – | – | – | –
6.3 | COC(=O)[C@]12CC[C@@H]([C@@H](C)N)[C@@H]1[C@H]1CC[C@@H]3[C@@]4(C)CC[C@H](OC(C)=O)C(C)(C)[C@@H]4CC[C@@]3(C)[C@]1(C)CC2 | – | 5.3 | 4.1 | 4.7 | – | – | 5.6 | – | 5.1 | – | – | – | 1.4 | Active | inactive | 16.6 | Active | 23.7 | 58.1
20.3 | C[C@@H](N)[C@@H]1CC[C@]2(CO)CC[C@]3(C)[C@H](CC[C@@H]4[C@@]5(C)CC[C@H](O)C(C)(C)[C@@H]5CC[C@]43C)[C@@H]12 | – | > 30 | 23.7 | > 30 | – | – | 16 | – | > 30 | – | – | – | – | – | – | – | – | – | –
> 30 | CC(=O)[C@@H]1CC[C@]2(C(=O)OCc3ccccc3)CC[C@]3(C)[C@H](CC[C@@H]4[C@@]5(C)CCC(=O)C(C)(C)[C@@H]5CC[C@]43C)[C@@H]12 | – | > 30 | > 30 | > 30 | – | – | > 30 | – | > 30 | – | – | – | – | – | – | – | – | – | –
1.3 | CC(=O)O[C@H]1CC[C@]2(C)[C@H]3CC[C@@H]4[C@H]5[C@H]([C@H](C)N)CC[C@]5(C(=O)OCc5ccccc5)CC[C@@]4(C)[C@]3(C)CC[C@H]2C1(C)C | – | 3.3 | 2.5 | 2.3 | – | – | 2 | – | 1.3 | – | – | – | – | – | – | – | – | – | –
20.7 | CC(=O)O[C@H]1CC[C@]2(C)[C@H]3CC[C@@H]4[C@H]5[C@H]([C@@H](C)N)CC[C@]5(C(=O)O)CC[C@@]4(C)[C@]3(C)CC[C@H]2C1(C)C | – | > 30 | 23.2 | > 30 | – | – | 27.2 | – | > 30 | – | – | – | – | – | – | – | – | – | –
2.4 | CC(=O)[C@@H]1CC[C@]2(C(=O)OCc3ccccc3)CC[C@]3(C)[C@H](CC[C@@H]4[C@@]5(C)CC[C@@H](N)C(C)(C)[C@@H]5CC[C@]43C)[C@@H]12 | – | 3.6 | 2.3 | 2.8 | – | – | 2.5 | – | 1.9 | – | – | – | – | – | – | – | – | – | –
13 | COC(=O)[C@]12CC[C@@H](/C(C)=N\O)[C@@H]1[C@H]1CC[C@@H]3[C@@]4(C)CC[C@H](OC(C)=O)C(C)(C)[C@@H]4CC[C@@]3(C)[C@]1(C)CC2 | – | 8.8 | 9.7 | 12.9 | – | – | 12.3 | – | 12.1 | – | – | – | – | – | – | – | – | – | –
